In brackets after ≈: the same amount, converted by molar mass. Several values for one entry are separate records, joined by “and”; a condition that tells them apart may be missing. Equal values may be shown once.
Legend:
[1] = target: Keap1 (Kelch domain = aa321–aa609) (Homo sapiens, UniProt Q14145); assay: biochemical; conditions: KD SPR, supplementary CSV; ISA format
physchem [2] = conditions: pH 7.4
physchem [3] = conditions: pH 7.4; remark: listed apart in the source
[4] = DMSO-d6, 25–85 °C

CN(C)C(=O)[C@H]1CSCc2ccccc2C(=O)OC[C@@H](NC(=O)[C@@H]2CCCN2C(=O)Cc2cccnc2)C(=O)N1 [Compound S16]
Kd [1]: 51 µM

CN(C)C(=O)[C@H]1CSCc2ccccc2C(=O)OC[C@@H](NC(=O)[C@@H]2CCCN2C(=O)c2ccccc2-n2cnnn2)C(=O)N1 [Compound S21]
Kd [1]: 13 µM

CC(=O)N1CCC[C@H]1C(=O)N[C@@H]1COC(=O)c2cccc(-c3cc(C)c(C(=O)O)c(C)c3)c2CSC[C@H](C(=O)N(C)C)NC1=O [Compound 77, 4-((4S,7R)-7-((S)-1-Acetylpyrrolidine-2-carboxamido)-4-(dimethylcarbamoyl)-6,10-dioxo-1,3,4,5,6,7,8,10-octahydrobenzo[j][1]oxa[8]thia[5]azacyclododecin-14-yl)-2,6-dimethylbenzoic Acid]
solubility (physchem [2]): 965 ± 38 µM (≈ 616 µg/mL)
logD (physchem [3]): < -1.4

CC(=O)N1CCC[C@H]1C(=O)N[C@@H]1COC(=O)c2cccc(-c3ccc(C(=O)O)cc3)c2CSC[C@H](C(=O)N(C)C)NC1=O [Compound 64, 4-((4S,7R)-7-((S)-1-Acetylpyrrolidine-2-carboxamido)-4-(dimethylcarbamoyl)-6,10-dioxo-1,3,4,5,6,7,8,10-octahydrobenzo[j][1]oxa[8]thia[5]azacyclododecin-14-yl)benzoic Acid]
solubility (physchem [2]): > 850 µM
logD (physchem [3]): < -1.5

CN(C)C(=O)[C@H]1CSCc2ccccc2C(=O)OC[C@@H](NC(=O)[C@@H]2CCCN2C(=O)c2ccccc2NS(C)(=O)=O)C(=O)N1 [Compound S8]
Kd [1]: 15.3 µM

CC(=O)N1CCC[C@H]1C(=O)N[C@@H]1COC(=O)c2ccccc2COC[C@H](C(=O)N(C)C)NC1=O [Compound 6, (4R,7R)-7-((S)-1-Acetylpyrrolidine-2-carboxamido)-N,N-dimethyl-6,10-dioxo-1,3,4,5,6,7,8,10-octahydrobenzo[j][1,8]dioxa[4]azacyclododecine-4-carboxamide]
Δδ/T, NHA (cysteine NH) [4]: 3.50 ppb/K
Δδ/T, NHB (serine NH) [4]: 3.5 ppb/K and 3.53 ppb/K

CN(C)C(=O)[C@H]1CSCc2ccccc2C(=O)OC[C@@H](NC(=O)[C@@H]2CCCN2C(=O)c2cccn(C)c2=O)C(=O)N1 [Compound S7]
Kd [1]: 14.7 µM

CC(=O)N1CCC[C@H]1C(=O)N[C@@H]1COC(=O)c2cccc(-c3cc(F)c(C(=O)O)c(F)c3)c2CSC[C@H](C(=O)N(C)C)NC1=O [Compound 78, 4-((4S,7R)-7-((S)-1-Acetylpyrrolidine-2-carboxamido)-4-(dimethylcarbamoyl)-6,10-dioxo-1,3,4,5,6,7,8,10-octahydrobenzo[j][1]oxa[8]thia[5]azacyclododecin-14-yl)-2,6-difluorobenzoic Acid]
solubility (physchem [2]): > 1000 µM
logD (physchem [3]): < -0.8

COC(=O)CCC(=O)N1CCC[C@H]1C(=O)N[C@@H]1COC(=O)c2ccccc2CSC[C@H](C(=O)N(C)C)NC1=O [Compound S3]
Kd [1]: 17.1 µM

CN(C)C(=O)[C@H]1CSCc2ccccc2C(=O)OC[C@@H](NC(=O)[C@@H]2CCCN2C(=O)Cc2cc3ccccc3s2)C(=O)N1 [Compound S13]
Kd [1]: 35.4 µM

CC(=O)N(CC(=O)N1CCC[C@H]1C(=O)N[C@@H]1COC(=O)c2ccccc2CSC[C@H](C(=O)N(C)C)NC1=O)c1ccccc1 [Compound S11]
Kd [1]: 63.6 µM
